Where a name gives a salt, the structure may show the parent alone.
Tests used:
Test in all cases: MIC, NCCLS broth microdilution
Format in all cases: cell-based
Acinetobacter sp. J2 = settings: for MIC of antibiotic at fixed inhibitor concentration (4 mg/L): Acinetobacter sp. J2, MIC of antibiotic compound 1 with the labelled bridged monobactam of formula II and clavulanate, 4 mg/L each
Description: (§1) Antimicrobial activity of the compounds and of their combinations was determined against a selection of organisms according to the standard procedures described by the National Committee for Clinical Laboratory Standards (National Committee for Clinical Laboratory. Standards (2000). Methods for Dilution Antimicrobial Susceptibility Tests for Bacteria That Grow Aerobically-Fifth Edition: Approved Standard M7-A5. NCCLS, Wayne, Pa., USA).
(§2) In all cases the final concentration of DMSO incubated with the bacteria is less than or equal to 1%. […] Plates were incubated overnight at an appropriate temperature (30° C. or 37° C.) and optical densities assessed by eye. The MIC value is defined as the lowest compound concentration completely inhibiting visible growth of the test organism. When combinations between compounds of formula I with compounds of formula II and are evaluated the compounds of formula I are tested in dilution series as described above while the compounds of formula II and III-XIII were present in all wells at a constant concentration of 4 μg/mL each.

[1] = test system: Pseudomonas aeruginosa MK1184; settings: for MIC of antibiotic at fixed inhibitor concentration (4 mg/L): MIC of antibiotic compound 1 with the labelled bridged monobactam of formula II and clavulanate, 4 mg/L each
[2] = test system: Pseudomonas aeruginosa 1973E; settings: for MIC of antibiotic at fixed inhibitor concentration (4 mg/L): MIC of antibiotic compound 1 with the labelled bridged monobactam of formula II and clavulanate, 4 mg/L each
Summary of the method: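 Compounds were serially diluted per NCCLS M7-A5 (final DMSO no more than 1%) and incubated with bacteria overnight at 30° C. or 37° C. Visible growth was then judged by eye. For combinations, partner compounds sat in every well at a constant 4 μg/mL each.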

Serratia marcescens S6 = settings: for MIC of antibiotic at fixed inhibitor concentration (4 mg/L): MIC of antibiotic compound 1 with the labelled bridged monobactam of formula II and clavulanate, 4 mg/L each
Enterobacter cloacae P99 = settings: for MIC of antibiotic at fixed inhibitor concentration (4 mg/L): MIC of antibiotic compound 1 with the labelled bridged monobactam of formula II and clavulanate, 4 mg/L each
[3] = test system: Klebsiella pneumoniae CF104; settings: for MIC of antibiotic at fixed inhibitor concentration (4 mg/L): MIC of antibiotic compound 1 with the labelled bridged monobactam of formula II and clavulanate, 4 mg/L each
Description: as §1, §2

[4] = test system: Stenotrophomonas malthophilia 1AC736; settings: for MIC of antibiotic at fixed inhibitor concentration (4 mg/L): Stenotrophomonas malthophilia 1AC736, MIC of antibiotic compound 1 with the labelled bridged monobactam of formula II and clavulanate, 4 mg/L each
Description: as §1, §2

C[C@H]1[C@H](NC(=O)/C(=N\OCc2cc(=O)c(O)cn2O)c2nc(N)sc2Cl)C(=O)N1OS(=O)(=O)O [Compound 29, (3S,4S)-3-{(2Z)-2-(2-amino-5-chloro(1,3-thiazol-4-yl))-3-[(1,5-dihydroxy-4-oxo(2-hydropyridyl))methoxy]-3-azaprop-2-enoylamino}-4-methyl-2-oxoazetidinyl hydroxysulfonate]
MIC of antibiotic (Acinetobacter sp. J2; Acinetobacter baumannii J2, antibiotic alone, no inhibitor): >32 µg/mL
MIC of antibiotic at fixed inhibitor concentration of 4 mg/L (Acinetobacter sp. J2; Acinetobacter baumannii J2, with 102 and clavulanate): >32 µg/mL
MIC of antibiotic at fixed inhibitor concentration of 4 mg/L (Acinetobacter sp. J2; Acinetobacter baumannii J2, with 102 and sulbactam): 2 µg/mL
MIC of antibiotic at fixed inhibitor concentration of 4 mg/L (Acinetobacter sp. J2; Acinetobacter baumannii J2, with 323 and sulbactam): 2 µg/mL
MIC of antibiotic ([1]; antibiotic alone, no inhibitor): >32 µg/mL
MIC of antibiotic at fixed inhibitor concentration of 4 mg/L ([1]; with 102 and clavulanate): 8 µg/mL
MIC of antibiotic at fixed inhibitor concentration of 4 mg/L ([1]; with 102 and sulbactam): 4 µg/mL
MIC of antibiotic at fixed inhibitor concentration of 4 mg/L ([1]; with 323 and sulbactam): 8 µg/mL
MIC of antibiotic ([2]; antibiotic alone, no inhibitor): 4 µg/mL
MIC of antibiotic at fixed inhibitor concentration of 4 mg/L ([2]; with 102 and clavulanate): 8 µg/mL
MIC of antibiotic at fixed inhibitor concentration of 4 mg/L ([2]; with 102 and sulbactam): 8 µg/mL
MIC of antibiotic at fixed inhibitor concentration of 4 mg/L ([2]; with 323 and sulbactam): 8 µg/mL
MIC of antibiotic (Serratia marcescens S6; antibiotic alone, no inhibitor): 32 µg/mL
MIC of antibiotic at fixed inhibitor concentration of 4 mg/L (Serratia marcescens S6; with 102 and clavulanate): 1 µg/mL
MIC of antibiotic at fixed inhibitor concentration of 4 mg/L (Serratia marcescens S6; with 102 and sulbactam): 8 µg/mL
MIC of antibiotic at fixed inhibitor concentration of 4 mg/L (Serratia marcescens S6; with 323 and sulbactam): 8 µg/mL
MIC of antibiotic (Enterobacter cloacae P99; antibiotic alone, no inhibitor): >32 µg/mL
MIC of antibiotic at fixed inhibitor concentration of 4 mg/L (Enterobacter cloacae P99; with 102 and clavulanate): 0.25 µg/mL
MIC of antibiotic at fixed inhibitor concentration of 4 mg/L (Enterobacter cloacae P99; with 102 and sulbactam): 8 µg/mL
MIC of antibiotic at fixed inhibitor concentration of 4 mg/L (Enterobacter cloacae P99; with 323 and sulbactam): 8 µg/mL
MIC of antibiotic ([3]; antibiotic alone, no inhibitor): >32 µg/mL
MIC of antibiotic at fixed inhibitor concentration of 4 mg/L ([3]; with 102 and clavulanate): 0.5 µg/mL
MIC of antibiotic at fixed inhibitor concentration of 4 mg/L ([3]; with 102 and sulbactam): 2 µg/mL
MIC of antibiotic at fixed inhibitor concentration of 4 mg/L ([3]; with 323 and sulbactam): 2 µg/mL
MIC of antibiotic ([4]; Stenotrophomonas maltophilia 1AC736, antibiotic alone, no inhibitor): 1 µg/mL
MIC of antibiotic at fixed inhibitor concentration of 4 mg/L ([4]; Stenotrophomonas maltophilia 1AC736, with 102 and clavulanate): 0.5 µg/mL
MIC of antibiotic at fixed inhibitor concentration of 4 mg/L ([4]; Stenotrophomonas maltophilia 1AC736, with 102 and sulbactam): 1 µg/mL
MIC of antibiotic at fixed inhibitor concentration of 4 mg/L ([4]; Stenotrophomonas maltophilia 1AC736, with 323 and sulbactam): 1 µg/mL

NC(C(=O)N1CC[C@@H]2[C@H]1C(=O)N2S(=O)(=O)O)c1ccc(O)c(O)c1 (some centres unmarked) [Compound 403]
MIC of antibiotic at fixed inhibitor concentration (4 mg/L) (Acinetobacter sp. J2): 8 µg/mL
MIC of antibiotic at fixed inhibitor concentration (4 mg/L) [1]: >32 µg/mL
MIC of antibiotic at fixed inhibitor concentration (4 mg/L) [2]: 2 µg/mL
MIC of antibiotic at fixed inhibitor concentration (4 mg/L) (Serratia marcescens S6): 0.5 µg/mL
MIC of antibiotic at fixed inhibitor concentration (4 mg/L) (Enterobacter cloacae P99): 32 µg/mL
MIC of antibiotic at fixed inhibitor concentration (4 mg/L) [3]: 4 µg/mL
MIC of antibiotic at fixed inhibitor concentration (4 mg/L) [4]: 0.125 µg/mL

COC(=O)c1cc(C)c[n+](CC(=O)N2CC[C@@H]3[C@H]2C(=O)N3S(=O)(=O)[O-])c1 [Compound 114, (1S,5R)-2-{2-[3-(methoxycarbonyl)-5-methylpyridinium]acetyl}-7-oxo-2,6-diazabicyclo[3.2.0]heptane-6-sulfonate, inner salt]
MIC of antibiotic at fixed inhibitor concentration (4 mg/L) (Acinetobacter sp. J2): >32 µg/mL
MIC of antibiotic at fixed inhibitor concentration (4 mg/L) [1]: 16 µg/mL
MIC of antibiotic at fixed inhibitor concentration (4 mg/L) [2]: 4 µg/mL
MIC of antibiotic at fixed inhibitor concentration (4 mg/L) (Serratia marcescens S6): 0.25 µg/mL
MIC of antibiotic at fixed inhibitor concentration (4 mg/L) (Enterobacter cloacae P99): 32 µg/mL
MIC of antibiotic at fixed inhibitor concentration (4 mg/L) [3]: 0.125 µg/mL
MIC of antibiotic at fixed inhibitor concentration (4 mg/L) [4]: 0.125 µg/mL

O=C(N[C@H]1CCNC1)c1ccc[n+](CC(=O)N2CC[C@@H]3[C@H]2C(=O)N3S(=O)(=O)[O-])c1 [Compound 122, 2-(2-{3-[N-((3S)pyrrolidin-3-yl)carbamoyl]pyridinium}acetyl)(1S,5R)-7-oxo-2,6-diazabicyclo[3.2.0]heptane-6-sulfonate, inner salt]
MIC of antibiotic at fixed inhibitor concentration (4 mg/L) (Acinetobacter sp. J2): >32 µg/mL
MIC of antibiotic at fixed inhibitor concentration (4 mg/L) [1]: 16 µg/mL
MIC of antibiotic at fixed inhibitor concentration (4 mg/L) [2]: 4 µg/mL
MIC of antibiotic at fixed inhibitor concentration (4 mg/L) (Serratia marcescens S6): 0.25 µg/mL
MIC of antibiotic at fixed inhibitor concentration (4 mg/L) (Enterobacter cloacae P99): 16 µg/mL
MIC of antibiotic at fixed inhibitor concentration (4 mg/L) [3]: 0.125 µg/mL
MIC of antibiotic at fixed inhibitor concentration (4 mg/L) [4]: 0.125 µg/mL

Nc1ccc(NC(=O)N2CC[C@@H]3[C@H]2C(=O)N3S(=O)(=O)[O-])cc1.[Na+] [Compound 327, Sodium(1S,5R)-2-[N-(4-aminophenyl)carbamoyl]-7-oxo-2,6-diazabicyclo[3.2.0]heptane-6-sulfonate]
MIC of antibiotic at fixed inhibitor concentration (4 mg/L) (Acinetobacter sp. J2): 2 µg/mL
MIC of antibiotic at fixed inhibitor concentration (4 mg/L) [1]: >32 µg/mL
MIC of antibiotic at fixed inhibitor concentration (4 mg/L) [2]: 2 µg/mL
MIC of antibiotic at fixed inhibitor concentration (4 mg/L) (Serratia marcescens S6): 0.25 µg/mL
MIC of antibiotic at fixed inhibitor concentration (4 mg/L) (Enterobacter cloacae P99): 32 µg/mL
MIC of antibiotic at fixed inhibitor concentration (4 mg/L) [3]: 2 µg/mL
MIC of antibiotic at fixed inhibitor concentration (4 mg/L) [4]: 0.125 µg/mL
